Measured values as given in patent US20200246277A1, “Composition For Alleviating, Preventing Or Treating Premenstrual Syndrome, Containing, As Active Ingredient, Pinitol, D-Chiro-Inositol Or Analog Compound Thereof” (DY NATURAL CO., LTD., priority 2015, published 2020).
“Also recorded” adds a separate entry of the source.

System: premenstrual syndrome
Assay: Blind test with questionnaire survey: alleviating effect on premenstrual syndrome, once a day for eight weeks
Format: in vivo, women
Conditions: for share of group with somewhat or significant alleviation of the main symptoms of premenstrual syndrome: administration group of 600 mg, across main symptoms; for share of group that answered alleviation in the main symptoms / share of group that did not feel changes in the main symptoms of premenstrual syndrome: administration group of 1,200 mg or 2,400 mg; for alleviation, percentage / alleviation, the number of people / complete alleviation, percentage / complete alleviation, the number of people / no change, percentage / no change, the number of people / significant alleviation, percentage / significant alleviation, the number of people: eight weeks; for effect on the main symptoms of premenstrual syndrome (dysmenorrhea, period of dysmenorrhea, coldness of hands and feet), in words: daily dose of 600 mg, 1,200 mg, and 2,400 mg
Description: 1. Evaluation of Administration of Pinitol or D-Chiro-Inositol to Female Subject Pinitol and D-chiro-inositol were purchased from Biosearch Life (Camino de Purchil, 66. 18004 Granada, Spain). Selected as experiment subjects were 80 normal women of reproductive age, that is, 80 women at the age of 25-40 who had neither skipped three or more cycles of menstruation, nor been administered with a contraceptive pill, and nor received a psychiatric treatment. Of them, 40 persons were classified into four groups of 10 which were then administered respectively with a placebo free of pinitol and having no pharmaceutical effects and with pinitol at three different doses. Likewise, the remaining 40 persons were equally divided into one placebo group and three experimental groups to which D-chiro-inositol was administered at three different doses, respectively. A blind test was conducted in which the placebo and pinitol or D-chiro-inositol was administered once a day for eight weeks. Pinitol or D-chiro-inositol was administered at daily doses of 600 mg, 1,200 mg, and 2,400 mg for eight weeks. A survey was made of the experimental subjects before and after the clinical test of placebo and pinitol or D-chiro-inositol to evaluate the alleviating effect of pinitol or D-chiro-inositol on premenstrual syndrome. 2. Survey In the present disclosure, the questionnaire that experimental subjects had completed with respect to the severity of premenstrual syndrome were analyzed. The experimental subjects evaluated the placebo, pinitol, or D-chiro-inositol for a pharmacological effect on premenstrual syndrome on the basis of four grades: complete alleviation, significant alleviation, somewhat alleviation, and no change for dysmenorrhea, a period of dysmenorrhea, and coldness of hands and feet. [table]

[1] = administration group of 1,200 mg
[2] = administration group of 2,400 mg
[3] = coldness of hands and feet, 600 mg a day
[4] = coldness of hands and feet, 1,200 mg a day
[5] = coldness of hands and feet, 2,400 mg a day
[6] = period of dysmenorrhea, 600 mg a day
[7] = period of dysmenorrhea, 1,200 mg a day
[8] = period of dysmenorrhea, 2,400 mg a day

With `O[C@H]1[C@H](O)[C@H](O)[C@@H](O)[C@H](O)[C@H]1O` [DCI, D-chiro-inositol] the “share of group with somewhat or significant alleviation of the main symptoms of premenstrual syndrome” value was 50-60%, the “share of group with complete alleviation of the main symptoms” value [1] was at least 50% and the “share of group that answered alleviation in the main symptoms” value was 80-90%. For the same molecule, the “share of group that did not feel changes in the main symptoms of premenstrual syndrome” value was 10%, the “share of group with complete alleviation of the main symptoms” value [2] was 70-80% and the “alleviation, percentage” value [3] was 30.0%. For the same molecule, the “alleviation, the number of people” value [3] was 3 person, the “complete alleviation, percentage” value [3] was 0.0% and the “complete alleviation, the number of people” value [3] was 0 person. The “no change, percentage” value [3] was 50.0%, the “no change, the number of people” value [3] was 5 person and the “significant alleviation, percentage” value [3] was 20.0%. The “significant alleviation, the number of people” value [3] was 2 person, the “alleviation, percentage” value [4] was 20.0% and the “alleviation, the number of people” value [4] was 2 person. The “complete alleviation, percentage” value [4] was 50.0%, the “complete alleviation, the number of people” value [4] was 5 person and the “no change, percentage” value [4] was 10.0%. The “no change, the number of people” value [4] was 1 person, the “significant alleviation, percentage” value [4] was 20.0% and the “significant alleviation, the number of people” value [4] was 2 person. The “alleviation, percentage” value [5] was 0.0%, the “alleviation, the number of people” value [5] was 0 person and the “complete alleviation, percentage” value [5] was 80.0%. For the same molecule, the “complete alleviation, the number of people” value [5] was 8 person, the “no change, percentage” value [5] was 10.0% and the “no change, the number of people” value [5] was 1 person. The “significant alleviation, percentage” value [5] was 10.0%, the “significant alleviation, the number of people” value [5] was 1 person and the “effect on the main symptoms of premenstrual syndrome (dysmenorrhea, period of dysmenorrhea, coldness of hands and feet), in words” value was “Significant reductions; also recorded: significantly alleviating”. The “alleviation, percentage” value (dysmenorrhea, 600 mg a day) was 20.0%, the “alleviation, the number of people” value (dysmenorrhea, 600 mg a day) was 2 person and the “complete alleviation, percentage” value (dysmenorrhea, 600 mg a day) was 0.0%. For the same molecule, the “complete alleviation, the number of people” value (dysmenorrhea, 600 mg a day) was 0 person, the “no change, percentage” value (dysmenorrhea, 600 mg a day) was 40.0% and the “no change, the number of people” value (dysmenorrhea, 600 mg a day) was 4 person. The “significant alleviation, percentage” value (dysmenorrhea, 600 mg a day) was 40.0%, the “significant alleviation, the number of people” value (dysmenorrhea, 600 mg a day) was 4 person and the “alleviation, percentage” value (dysmenorrhea, 1,200 mg a day) was 20.0%. The “alleviation, the number of people” value (dysmenorrhea, 1,200 mg a day) was 2 person, the “complete alleviation, percentage” value (dysmenorrhea, 1,200 mg a day) was 50.0% and the “complete alleviation, the number of people” value (dysmenorrhea, 1,200 mg a day) was 5 person. For the same molecule, the “no change, percentage” value (dysmenorrhea, 1,200 mg a day) was 0.0%, the “no change, the number of people” value (dysmenorrhea, 1,200 mg a day) was 0 person and the “significant alleviation, percentage” value (dysmenorrhea, 1,200 mg a day) was 30.0%. The “significant alleviation, the number of people” value (dysmenorrhea, 1,200 mg a day) was 3 person, the “alleviation, percentage” value (dysmenorrhea, 2,400 mg a day) was 0.0% and the “alleviation, the number of people” value (dysmenorrhea, 2,400 mg a day) was 0 person. For the same molecule, the “complete alleviation, percentage” value (dysmenorrhea, 2,400 mg a day) was 90.0%, the “complete alleviation, the number of people” value (dysmenorrhea, 2,400 mg a day) was 9 person and the “no change, percentage” value (dysmenorrhea, 2,400 mg a day) was 0.0%. For the same molecule, the “no change, the number of people” value (dysmenorrhea, 2,400 mg a day) was 0 person, the “significant alleviation, percentage” value (dysmenorrhea, 2,400 mg a day) was 10.0% and the “significant alleviation, the number of people” value (dysmenorrhea, 2,400 mg a day) was 1 person. The “alleviation, percentage” value [6] was 20.0%, the “alleviation, the number of people” value [6] was 2 person and the “complete alleviation, percentage” value [6] was 0.0%. The “complete alleviation, the number of people” value [6] was 0 person, the “no change, percentage” value [6] was 50.0% and the “no change, the number of people” value [6] was 5 person. For the same molecule, the “significant alleviation, percentage” value [6] was 30.0%, the “significant alleviation, the number of people” value [6] was 3 person and the “alleviation, percentage” value [7] was 10.0%. The “alleviation, the number of people” value [7] was 1 person, the “complete alleviation, percentage” value [7] was 60.0% and the “complete alleviation, the number of people” value [7] was 6 person. For the same molecule, the “no change, percentage” value [7] was 10.0%, the “no change, the number of people” value [7] was 1 person and the “significant alleviation, percentage” value [7] was 20.0%. The “significant alleviation, the number of people” value [7] was 2 person, the “alleviation, percentage” value [8] was 0.0% and the “alleviation, the number of people” value [8] was 0 person. For the same molecule, the “complete alleviation, percentage” value [8] was 80.0%, the “complete alleviation, the number of people” value [8] was 8 person and the “no change, percentage” value [8] was 0.0%. The “no change, the number of people” value [8] was 0 person, the “significant alleviation, percentage” value [8] was 20.0% and the “significant alleviation, the number of people” value [8] was 2 person.

With `CO[C@H]1[C@H](O)[C@@H](O)[C@@H](O)[C@H](O)[C@@H]1O` [Pinitol, pinitol] the “share of group with somewhat or significant alleviation of the main symptoms of premenstrual syndrome” value was 50-60%, the “share of group with complete alleviation of the main symptoms” value [1] was at least 50% and the “share of group that answered alleviation in the main symptoms” value was 80-90%. The “share of group that did not feel changes in the main symptoms of premenstrual syndrome” value was 10%, the “share of group with complete alleviation of the main symptoms” value [2] was 70-80% and the “alleviation, percentage” value [3] was 40.0%. For the same molecule, the “alleviation, the number of people” value [3] was 4 person, the “complete alleviation, percentage” value [3] was 0.0% and the “complete alleviation, the number of people” value [3] was 0 person. The “no change, percentage” value [3] was 50.0%, the “no change, the number of people” value [3] was 5 person and the “significant alleviation, percentage” value [3] was 10.0%. For the same molecule, the “significant alleviation, the number of people” value [3] was 1 person, the “alleviation, percentage” value [4] was 10.0% and the “alleviation, the number of people” value [4] was 1 person. For the same molecule, the “complete alleviation, percentage” value [4] was 40.0%, the “complete alleviation, the number of people” value [4] was 4 person and the “no change, percentage” value [4] was 20.0%. For the same molecule, the “no change, the number of people” value [4] was 2 person, the “significant alleviation, percentage” value [4] was 30.0% and the “significant alleviation, the number of people” value [4] was 3 person. The “alleviation, percentage” value [5] was 10.0%, the “alleviation, the number of people” value [5] was 1 person and the “complete alleviation, percentage” value [5] was 70.0%. The “complete alleviation, the number of people” value [5] was 7 person, the “no change, percentage” value [5] was 10.0% and the “no change, the number of people” value [5] was 1 person. For the same molecule, the “significant alleviation, percentage” value [5] was 10.0%, the “significant alleviation, the number of people” value [5] was 1 person and the “effect on the main symptoms of premenstrual syndrome (dysmenorrhea, period of dysmenorrhea, coldness of hands and feet), in words” value was “Significant reductions; also recorded: significantly alleviating”. For the same molecule, the “alleviation, percentage” value (dysmenorrhea, 600 mg a day) was 30.0%, the “alleviation, the number of people” value (dysmenorrhea, 600 mg a day) was 3 person and the “complete alleviation, percentage” value (dysmenorrhea, 600 mg a day) was 0.0%. The “complete alleviation, the number of people” value (dysmenorrhea, 600 mg a day) was 0 person, the “no change, percentage” value (dysmenorrhea, 600 mg a day) was 40.0% and the “no change, the number of people” value (dysmenorrhea, 600 mg a day) was 4 person. The “significant alleviation, percentage” value (dysmenorrhea, 600 mg a day) was 30.0%, the “significant alleviation, the number of people” value (dysmenorrhea, 600 mg a day) was 3 person and the “alleviation, percentage” value (dysmenorrhea, 1,200 mg a day) was 10.0%. For the same molecule, the “alleviation, the number of people” value (dysmenorrhea, 1,200 mg a day) was 1 person, the “complete alleviation, percentage” value (dysmenorrhea, 1,200 mg a day) was 60.0% and the “complete alleviation, the number of people” value (dysmenorrhea, 1,200 mg a day) was 6 person. The “no change, percentage” value (dysmenorrhea, 1,200 mg a day) was 10.0%, the “no change, the number of people” value (dysmenorrhea, 1,200 mg a day) was 1 person and the “significant alleviation, percentage” value (dysmenorrhea, 1,200 mg a day) was 20.0%. The “significant alleviation, the number of people” value (dysmenorrhea, 1,200 mg a day) was 2 person, the “alleviation, percentage” value (dysmenorrhea, 2,400 mg a day) was 0.0% and the “alleviation, the number of people” value (dysmenorrhea, 2,400 mg a day) was 0 person. The “complete alleviation, percentage” value (dysmenorrhea, 2,400 mg a day) was 80.0%, the “complete alleviation, the number of people” value (dysmenorrhea, 2,400 mg a day) was 8 person and the “no change, percentage” value (dysmenorrhea, 2,400 mg a day) was 0.0%. The “no change, the number of people” value (dysmenorrhea, 2,400 mg a day) was 0 person, the “significant alleviation, percentage” value (dysmenorrhea, 2,400 mg a day) was 20.0% and the “significant alleviation, the number of people” value (dysmenorrhea, 2,400 mg a day) was 2 person. The “alleviation, percentage” value [6] was 20.0%, the “alleviation, the number of people” value [6] was 2 person and the “complete alleviation, percentage” value [6] was 0.0%. The “complete alleviation, the number of people” value [6] was 0 person, the “no change, percentage” value [6] was 50.0% and the “no change, the number of people” value [6] was 5 person. For the same molecule, the “significant alleviation, percentage” value [6] was 30.0%, the “significant alleviation, the number of people” value [6] was 3 person and the “alleviation, percentage” value [7] was 20.0%. The “alleviation, the number of people” value [7] was 2 person, the “complete alleviation, percentage” value [7] was 50.0% and the “complete alleviation, the number of people” value [7] was 5 person. For the same molecule, the “no change, percentage” value [7] was 10.0%, the “no change, the number of people” value [7] was 1 person and the “significant alleviation, percentage” value [7] was 20.0%. The “significant alleviation, the number of people” value [7] was 2 person, the “alleviation, percentage” value [8] was 0.0% and the “alleviation, the number of people” value [8] was 0 person. The “complete alleviation, percentage” value [8] was 80.0%, the “complete alleviation, the number of people” value [8] was 8 person and the “no change, percentage” value [8] was 0.0%. For the same molecule, the “no change, the number of people” value [8] was 0 person, the “significant alleviation, percentage” value [8] was 20.0% and the “significant alleviation, the number of people” value [8] was 2 person.
